Measured values as given in patent US8039668B2, “Naphthalene-based inhibitors of anti-apoptotic proteins” (Burnham Institute for Medical Research, priority 2008, dated 2011).
Like-named read-outs stand apart in the source and are kept apart here.

How the values were obtained:
[1] = system: BP3 human B-cell lymphoma cell line; experiment: Annexin V-FITC and propidium iodide assay; format: cell-based; settings: for EC50: Homo sapiens, B-cell, Table 3, Annexin V-FITC and propidium iodide assay, read-out: EC50 BP3
H1299 cell line = experiment: Cell viability, ATP-LITE assay; format: cell-based, human; settings: Homo sapiens
Procedure: (§1) The activity of the compounds against human cancer cell lines (PC3ML, H460, H1299, RS11846) were assessed by using the ATP-LITE assay (PerkinElmer). All cells were seeded in either F12 or RPMI1640 medium with 5 mM L-glutamine supplemented with 5% fetal bovine serum (Mediatech Inc.), penicillin and streptomycin (Omega). For maintenance, cells were cultured in 5% FBS. Cells plated into 96 well plates at varying initial densities depending on doubling time. H460 and H1299 plated at 2000 cells/well, A549 and PC3 at 3000 cells/well, and RS118456S at 10,000 cells/well. Compounds were diluted to final concentrations with 0.1% DMSO. Prior to dispensing compounds onto cells, fresh 5% media was placed into wells. Administration of compounds occurred 24 hours after seeding into the fresh media. Cell viability was evaluated using ATP-LITE reagent (PerkinElmer) after 72 hours of treatment. Data were normalized to the DMSO control-treated cells using Prism version 5.01 (Graphpad Software).

PC3ML cells = experiment: Cell viability, ATP-LITE assay; format: cell-based, human; settings: Homo sapiens, PC3-ML
Procedure: as §1

BCL-XL [2] = biological target: T1, BCL-XL (Homo sapiens, UniProt Q07817); experiment: 1D 1H-NMR binding assay; set-up: key to 1D-^1H NMR: +++, Very Active; ++, Active; +, Mild; −, Weak; settings: for 1D ^1H-NMR Binding Assay (BCL-XL): Table 9; for 1D-^1H NMR: Table 3, BCL-XL 25 μM, compound 200 μM
Procedure: By observing the aliphatic region of the spectra, binding could be readily detected due to chemical shift changes in active site methyl groups of Ile, Leu, Thr, Val or Ala (region between −0.8 and 0.3 ppm). All experiments were performed with a 600 MHz spectrometer Bruker Avance 600 equipped with four rf channels and z-axis pulse-field gradients.
Target sequence in this assay (Q07817 whole entry): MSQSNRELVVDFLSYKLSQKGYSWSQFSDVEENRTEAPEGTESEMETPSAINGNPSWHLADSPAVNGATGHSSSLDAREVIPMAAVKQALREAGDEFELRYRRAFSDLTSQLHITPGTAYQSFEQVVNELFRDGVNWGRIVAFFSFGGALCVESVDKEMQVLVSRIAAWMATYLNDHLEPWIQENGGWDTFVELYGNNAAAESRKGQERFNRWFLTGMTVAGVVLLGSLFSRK

RS11846 cell line = experiment: Cell viability, ATP-LITE assay; format: cell-based; settings: Homo sapiens, read-out: RS11846 EC50 (ATP-LITE assay)
Procedure: as §1

[3] = system: H460 human lung cell line; experiment: Cell viability, ATP-LITE assay; format: cell-based; settings: Homo sapiens
Procedure: as §1

[4] = system: human lymphoma RS11846 cell line; experiment: Apoptosis, Annexin V-FITC and propidium iodide assay; format: cell-based; settings: for EC50: Homo sapiens
BCL-XL [5] = biological target: T1, BCL-XL; experiment: Competitive fluorescence polarization assay (FPA), Bak BH3 peptide; format: binding; set-up: 100 nM GST-BCL-XL ΔTM protein; settings: Table 9
Procedure: For competitive binding assays, 100 nM GST-BCL-XL ΔTM protein was preincubated with the tested compound at varying concentrations in 47.5 μL PBS (pH=7.4) in 96-well black plates at room temperature for 10 min, then 2.5 μL of 100 nM FITC-labeled Bak BH3 peptide was added to produce a final volume of 50 μL. The wild-type and mutant Bak BH3 peptides were included in each assay plate as positive and negative controls, respectively. […] IC50 was determined by fitting the experimental data to a sigmoidal dose-response nonlinear regression model (SigmaPlot 10.0.1, Systat Software, Inc., San Jose, Calif., USA). Data reported are mean of three independent experiments±standard error (SE). […] Fluorescence polarization was measured after 10 min.
Target sequence in this assay (Q07817 1-209 limits assumed): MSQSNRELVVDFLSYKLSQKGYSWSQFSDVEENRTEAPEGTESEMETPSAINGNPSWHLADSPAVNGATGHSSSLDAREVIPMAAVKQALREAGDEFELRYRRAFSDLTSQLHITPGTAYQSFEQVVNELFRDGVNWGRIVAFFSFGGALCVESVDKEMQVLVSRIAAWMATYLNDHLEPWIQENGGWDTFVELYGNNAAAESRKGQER

[6] = NCI-H1299, Table 9, read-out: H1299 EC50
[7] = NCI-H460, Table 9, read-out: H460 EC50
[8] = Table 9, read-out: RS11846 EC50 (Annexin V- and propidium iodide assay)
[9] = NCI-H1299, read-out: H1299 EC50
[10] = read-out: RS11846 EC50 (Annexin V- and propidium iodide assay), Table 9
[11] = NCI-H460, heading: EC50 H460, Table 3, ATP-LITE assay, read-out: EC50 H460
[12] = Table 3, Annexin V-FITC and propidium iodide assay, heading: EC50 RS11846, read-out: EC50 RS11846

Structure (SMILES)	EC50 (H1299 cell line; [6]) [µM]	EC50 (PC3ML cells; Table 9, read-out: PC3ML EC50) [µM]	1D ^1H-NMR Binding Assay (BCL-XL) (BCL-XL [2])	EC50 (RS11846 cell line; Table 9) [µM]	EC50 [3, 7] [µM]	EC50 [4, 8] [µM]	IC50 (BCL-XL [5]; read-out: FPA IC50 (BCL-XL)) [µM]	further results
CN(C)CC[C@H](CSc1ccccc1)Nc1ccc(S(=O)(=O)NC(=O)c2ccc(N3CCN(Cc4ccccc4-c4ccc(Cl)cc4)CC3)cc2)cc1[N+](=O)[O-] [ABT-737, reference compound]								cell activity against BP3 cell lines [1]: no cell activity
Cc1cc2c(C(=O)CCc3ccc(F)cc3)c(O)c(O)cc2c(O)c1-c1c(C)cc2c(C(=O)CCc3ccc(F)cc3)c(O)c(O)cc2c1O [Compound XVI, 1,1′-(1,1′,6,6′,7,7′-hexahydroxy-3,3′-dimethyl-2,2′-binaphthyl-5,5′-diyl)bis(3-(4-fluorophenyl)propan-1-one)]	2.2	2.8	++	2.3	1.5	3.1	0.14	
Cc1cc2c(C(=O)c3ccc(C(F)(F)F)cc3)c(O)c(O)cc2c(O)c1-c1c(C)cc2c(C(=O)c3ccc(C(F)(F)F)cc3)c(O)c(O)cc2c1O [Compound XI, (1,1′,6,6′,7,7′-hexahydroxy-3,3′-dimethyl-2,2′-binaphthyl-5,5′-diyl)bis((4-(trifluoromethyl)phenyl)methanone)]	2	2.9	+	2.5	2.2	3 to 5.5	0.25	
CCCCC(CC)CC(=O)c1c(O)c(O)cc2c(O)c(-c3c(C)cc4c(C(=O)CC(CC)CCCC)c(O)c(O)cc4c3O)c(C)cc12 (centres unmarked) [Compound V, 1,1′-(1,1′,6,6′,7,7′-hexahydroxy-3,3′-dimethyl-2,2′-binaphthyl-5,5′-diyl)bis(3-ethylheptan-1-one)]	3	3	+	2.8	1.5	6.6	1.29	
Cc1cc2c(C(=O)CC(C)C)c(O)c(O)cc2c(O)c1-c1c(C)cc2c(C(=O)CC(C)C)c(O)c(O)cc2c1O [Compound IV, 1,1′-(1,1′,6,6′,7,7′-hexahydroxy-3,3′-dimethyl-2,2′-binaphthyl-5,5′-diyl)bis(3-methylbutan-1-one)]	3.6	7.5	+	10	1.1	13.7	1.3	
Cc1cc2c(C(=O)c3ccc(-c4ccccc4)cc3)c(O)c(O)cc2c(O)c1-c1c(C)cc2c(C(=O)c3ccc(-c4ccccc4)cc3)c(O)c(O)cc2c1O [Compound IX, (1,1′,6,6′,7,7′-hexahydroxy-3,3′-dimethyl-2,2′-binaphthyl-5,5′-diyl)bis(biphenyl-4-ylmethanone)]			+					EC50 (H1299 cell line; [9]): 9.6 µM; EC50 (PC3ML cells; read-out: PC3ML EC50, Table 9): 7.7 µM; EC50 (RS11846 cell line): 2.8 µM; EC50 ([3]; NCI-H460, read-out: H460 EC50): 8.2 µM; EC50 [4, 10]: 25.9 µM
Cc1cc2c(C(=O)CC3CCCCC3)c(O)c(O)cc2c(O)c1-c1c(C)cc2c(C(=O)CC3CCCCC3)c(O)c(O)cc2c1O [Compound XV, 1,1′-(1,1′,6,6′,7,7′-hexahydroxy-3,3′-dimethyl-2,2′-binaphthyl-5,5′-diyl)bis(2-cyclohexylethanone)]	2.1	1.9	+	2	1.8	5.2		
Cc1cc2c(C(=O)C(C)C)c(O)c(O)cc2c(O)c1-c1c(C)cc2c(C(=O)C(C)C)c(O)c(O)cc2c1O [Compound III, 1,1′-(1,1′,6,6′,7,7′-hexahydroxy-3,3′-dimethyl-2,2′-binaphthyl-5,5′-diyl)bis(2-methylpropan-1-one)]			++					EC50 (H1299 cell line; [9]): 4.8 µM; EC50 (PC3ML cells; read-out: PC3ML EC50, Table 9): 3.9 µM; EC50 (RS11846 cell line): 15 µM; EC50 ([3]; NCI-H460, read-out: H460 EC50): 1.5 µM; EC50 [4, 10]: 14.7 µM
Cc1cc2c(C(=O)c3ccccc3)c(O)c(O)cc2c(O)c1-c1c(C)cc2c(C(=O)c3ccccc3)c(O)c(O)cc2c1O [Compound VII, (1,1′,6,6′,7,7′-hexahydroxy-3,3′-dimethyl-2,2′-binaphthyl-5,5′-diyl)bis(phenylmethanone)]	4.2	3.6	+			18.3	2.9	
Cc1cc2c(C(=O)Cc3cccc(Br)c3)c(O)c(O)cc2c(O)c1-c1c(C)cc2c(C(=O)Cc3cccc(Br)c3)c(O)c(O)cc2c1O [Compound XIII, 1,1′-(1,1′,6,6′,7,7′-hexahydroxy-3,3′-dimethyl-2,2′-binaphthyl-5,5′-diyl)bis(2-(3-bromophenyl)ethanone)]			++					EC50 (H1299 cell line; [9]): 2.6 µM; EC50 (PC3ML cells; read-out: PC3ML EC50, Table 9): 3.1 µM; EC50 (RS11846 cell line): 8.4 µM; EC50 ([3]; NCI-H460, read-out: H460 EC50): 2.7 µM; EC50 [4, 10]: 5.3 µM; IC50 (BCL-XL [5]; FPA IC50 (BCL-XL)): 1.31 µM
Cc1cc2c(C(=O)NCCc3ccc(Cl)cc3)c(O)c(O)cc2c(O)c1-c1c(C)cc2c(C(=O)NCCc3ccc(Cl)cc3)c(O)c(O)cc2c1O [Compound 8t, N^5,N^5′-bis(4-chlorophenethyl)-1,1′,6,6′,7,7′-hexahydroxy-3,3′-dimethyl-2,2′-binaphthyl-5,5′-dicarboxamide]								1D-^1H NMR (BCL-XL [2]): ++; EC50 [1]: 0.7 µM; EC50 [3, 11]: 1.3 µM; EC50 [4, 12]: 5.1 µM
Cc1cc2c(C(=O)O)c(O)c(O)cc2c(O)c1-c1c(C)cc2c(C(=O)O)c(O)c(O)cc2c1O [Compound 14, 1,1′,6,6′,7,7′-hexahydroxy-3,3′-dimethyl-2,2′-binaphthyl-5,5′-dicarboxylic acid]								EC50 (H1299 cell line; NCI-H1299, heading: EC50 H1299, Table 3, ATP-LITE assay, read-out: EC50 H1299): > 30 µM; EC50 (PC3ML cells; Table 3, ATP-LITE assay, heading: EC50 PC3ML, read-out: EC50 PC3ML): > 30 µM; 1D-^1H NMR (BCL-XL [2]): −; EC50 ([1]; heading: EC50 BP3): > 30 µM; EC50 [3, 11]: > 30 µM; EC50 [4, 12]: > 30 µM; induction of apoptosis of the RS11846 cell line ([4]; in words): weak or no apoptosis
Cc1cc2c(C(=O)Cc3ccc(OC(F)(F)F)cc3)c(O)c(O)cc2c(O)c1-c1c(C)cc2c(C(=O)Cc3ccc(OC(F)(F)F)cc3)c(O)c(O)cc2c1O [Compound XIV, 1,1′-(1,1′,6,6′,7,7′-hexahydroxy-3,3′-dimethyl-2,2′-binaphthyl-5,5′-diyl)bis(2-(4-(trifluoromethoxy)phenyl)ethanone)]			++					EC50 (H1299 cell line; [9]): 3.9 µM; EC50 (PC3ML cells; read-out: PC3ML EC50, Table 9): 1.9 µM; EC50 (RS11846 cell line): 1.8 µM; EC50 ([3]; NCI-H460, read-out: H460 EC50): 3.3 µM; EC50 [4, 10]: 6.2 µM; IC50 (BCL-XL [5]; FPA IC50 (BCL-XL)): 1.3 µM
Cc1cc2c(C(=O)c3ccc(C(C)(C)C)cc3)c(O)c(O)cc2c(O)c1-c1c(C)cc2c(C(=O)c3ccc(C(C)(C)C)cc3)c(O)c(O)cc2c1O [Compound X, (1,1′,6,6′,7,7′-hexahydroxy-3,3′-dimethyl-2,2′-binaphthyl-5,5′-diyl)bis((4-tert-butylphenyl)methanone)]	4.8	2.8	−	2.3	3.6	13.4		
Cc1cc2cc(O)c(O)cc2c(O)c1-c1c(C)cc2cc(O)c(O)cc2c1O [Compound II, 3,3′-dimethyl-2,2′-binaphthyl-1,1′,6,6′ 7,7′-hexaol]	13.4	12.6	+	10	10.1	24.7		
